According to patent US20090143279A1 (priority 2007, published 2009):
Counter-ions that a name gives are not always drawn. Like-named read-outs stand apart in the source and are kept apart here.

Tests used:
[1] = test system: reactive oxygen species; type: cell-based, mouse; details: for ROS levels: primary screen, in words; for dose at which ROS levels decreased: retest at 20 nM to 20 μM, FIG. 6a
[2] = test system: OXPHOS gene expression; type: cell-based, mouse; details: for OXPHOS expression: primary screen, in words; for dose at which OXPHOS expression increased: retest at 20 nM to 20 μM, FIG. 6a; for GE-HTS: Conc 20 μM
[3] = test system: nuOXPHOS transcripts; type: cell-based, mouse
[4] = test system: mtOXPHOS transcripts; type: cell-based, mouse
[5] = test system: cytochrome c; type: cell-based, mouse
[6] = test system: mitochondrial membrane potential; type: cell-based, mouse
[7] = test system: C2C12 myotubes
[8] = test system: cellular dehydrogenase activity
[9] = Table 3, differentiated C2C12 myotubes, 48 h treatment, composite Z-score vs DMSO
[10] = Table 5, C2C12 myotubes, 48 h, composite Z-score
[11] = Table 7, C2C12 myotubes, 48 h, composite Z-score
[12] = composite Z-score vs DMSO, Conc 20 μM
[13] = composite Z-score vs mock-treated (DMSO) wells, Conc 20 μM
[14] = normalized composite Z-score vs mock-treated (DMSO) wells, Conc 20 μM
[15] = normalized composite Z-score vs mock-treated (DMSO) wells
[16] = composite Z-score vs DMSO wells, Conc 20 μM
[17] = composite Z-score vs DMSO wells

## CC[C@]1(O)C[C@@H]2CN(CCc3c([nH]c4ccccc34)[C@@](C(=O)OC)(c3cc4c(cc3OC)N(C)[C@H]3[C@@](O)(C(=O)OC)[C@H](OC(C)=O)[C@]5(CC)C=CCN6CC[C@]43[C@@H]65)C2)C1 [vinblastine sulfate, reference compound]
[1]; [9]
  ROS Zscore: −1.327
[1]; [10]
  ROS Zscore: −1.327
[1]
  ROS levels: suppressing ROS levels
  dose at which ROS levels decreased: 2 µM
[2]; [9]
  GEHTS_Zscore: 3.171
[2]; [10]
  GEHTS_Zscore: 3.171
[2]
  OXPHOS expression: boost OXPHOS expression
  dose at which OXPHOS expression increased: 2 µM
[3]; [11]
  nucOXPHOS Z: 2.09
[4]; [11]
  mito-OXPHOS Z: 1.64
[5]; composite Z-score vs mock-treated (DMSO) wells, concentration of each compound in μM
  cyt c: −1.078

## Thimerosal [reference compound]
[6]
  ΔΨm: −3.315
[1]
  ROS: −3.880
[3]
  nucOXPHOS Z: −1.20
[4]
  mito-OXPHOS Z: 10.41
[7]
  Viability: −5.590
[8]
  MTT: −6.206

## CC[C@@]1(O)C[C@H](O[C@H]2C[C@H](N(C)C)[C@H](O)[C@H](C)O2)c2c(cc3c(c2O)C(=O)c2c(O)ccc(O)c2C3=O)[C@H]1C(=O)OC [Pyrromycin, reference compound]
[3]; [11]
  nucOXPHOS Z: −2.89
[4]; [11]
  mito-OXPHOS Z: −2.67

## COc1cc(OC)c2c(=O)c(-c3ccccc3)coc2c1 [5,7-dimethoxyisoflavone]
[1]; [12]
  ROS: 0.573
[2]; composite Z-score vs DMSO
  GE-HTS: 0.945
[3]; [12]
  nucOX: 0.916
[4]; [12]
  mitoOX: 0.773
[5]; [12]
  cyt c: 0.046
[7]; [12]
  Viability: −0.298
[8]; [12]
  MTT: −1.335

## CC(C)[C@]12O[C@H]1[C@@H]1O[C@@]13[C@@]1(C)CCC4=C(COC4=O)[C@@H]1C[C@@H]1O[C@@]13C2=O [Triptonide, reference compound]
[3]; [11]
  nucOXPHOS Z: −2.18
[4]; [11]
  mito-OXPHOS Z: 5.02

## CC1=CC(=O)c2ccccc2C1=O [Menadione, reference compound]
[3]; [11]
  nucOXPHOS Z: −3.40
[4]; [11]
  mito-OXPHOS Z: 2.13

## COC(=O)C[C@H]1C(C)(C)[C@@H](OC(C)=O)[C@@H]2CC3=C4CC(=O)O[C@@H](c5ccoc5)[C@]4(C)CC[C@@H]3[C@@]1(C)C2=O [fissinolide]
[6]; [13]
  ΔΨm: −0.324
[1]; [13]
  ROS: 0.475
[2]; composite Z-score vs mock-treated (DMSO) wells
  GE-HTS: 0.534
[3]; [13]
  nucOX: 0.385
[4]; [13]
  mitoOX: 0.777
[5]; [13]
  cyt c: −0.167
[7]; [13]
  Viability: 0.060

## C[C@H]1O[C@@H](n2cc(F)c(=O)[nH]c2=O)[C@H](O)[C@@H]1O [5-fluoro-5′-deoxyuridine]
[6]; [12]
  ΔΨm: −0.828
[1]; [12]
  ROS: 0.337
[2]; composite Z-score vs DMSO
  GE-HTS: −0.336
[3]; [12]
  nucOX: −0.284
[4]; [12]
  mitoOX: −0.387
[5]; [12]
  cyt c: 0.338
[8]; [12]
  MTT: −2.176

## C=C1CCC=C(C)C(=O)CC2C(C)CC12 (stereo not shown) [15-norcaryophyllen-3-one]
[6]; [14]
  ΔΨm: 0.034
[1]; [14]
  ROS: −0.667
[2]; [15]
  GE-HTS: −0.016
[3]; [14]
  nucOX: −0.076
[4]; [14]
  mitoOX: 0.137
[5]; [14]
  cyt c: 0.656
[7]; [14]
  Viability: 0.557

## CCN(CC)C(=S)SSC(=S)N(CC)CC [Disulfiram, reference compound]
[3]; [11]
  nucOXPHOS Z: −4.10
[4]; [11]
  mito-OXPHOS Z: 0.93

## O=c1[nH]cc(F)c(=O)[nH]1 [Fluorouracil, reference compound]
[3]; [11]
  nucOXPHOS Z: 1.50
[4]; [11]
  mito-OXPHOS Z: 1.55

## CC(C)=CCC[C@]1(C)C=Cc2c(O)c3c(c(CC=C(C)C)c2O1)O[C@]12C(=C[C@@H]4CC1C(C)(C)O[C@@]2(C/C=C(/C)C(N)=O)C4=O)C3=O [gambogic acid amide, reference compound]
[3]; [11]
  nucOXPHOS Z: −4.01
[4]; [11]
  mito-OXPHOS Z: −2.68

## O=C1C[C@@H](c2ccc(O)cc2)Oc2cc(O)ccc21 [liquiritigenin]
[6]; [14]
  ΔΨm: 1.004
[1]; [14]
  ROS: 0.301
[2]; [15]
  GE-HTS: −0.749
[4]; [14]
  mitoOX: −1.069
[5]; [14]
  cyt c: 0.523
[7]; [14]
  Viability: 1.353
[8]; [14]
  MTT: −0.429

## CN(C)C(=O)Oc1cccc([N+](C)(C)C)c1 [Neostigmine, reference compound]
[3]; [11]
  nucOXPHOS Z: −3.54
[4]; [11]
  mito-OXPHOS Z: −3.45

## CCOC(=O)c1c(C)cc(OC)cc1O [ethyl everninate]
[6]; [12]
  ΔΨm: −0.860
[1]; [12]
  ROS: 0.125
[2]; composite Z-score vs DMSO
  GE-HTS: −0.428
[3]; [12]
  nucOX: −0.131
[4]; [12]
  mitoOX: −0.980
[5]; [12]
  cyt c: 0.122
[8]; [12]
  MTT: −1.302

## Nc1cc(N2CCCCC2)nc(N)[n+]1[O-] [Minoxidil, reference compound]
[3]; [11]
  nucOXPHOS Z: 2.38
[4]; [11]
  mito-OXPHOS Z: 1.37

## CC[C@@]1([C@@H]2O[C@@H]([C@H]3O[C@@](O)(CO)[C@H](C)C[C@@H]3C)C[C@@H]2C)CC[C@H]([C@]2(C)CC[C@]3(C[C@H](O)[C@@H](C)[C@@H]([C@@H](C)[C@@H](OC)[C@H](C)C(=O)O)O3)O2)O1 [monensin, reference compound]
[3]; [11]
  nucOXPHOS Z: 0.70
[4]; [11]
  mito-OXPHOS Z: −4.13

## COc1cccc2c1C(=O)c1c(O)c3c(c(O)c1C2=O)C[C@@](O)(C(=O)CO)C[C@@H]3O[C@H]1C[C@H](N)[C@H](O)[C@H](C)O1 [Doxorubicin, reference compound]
[3]; [11]
  nucOXPHOS Z: −1.85
[4]; [11]
  mito-OXPHOS Z: 2.57

## N=C1C=CC(=C(c2ccc(N)cc2)c2ccc(N)cc2)C=C1 [Pararosaniline, reference compound]
[3]; [11]
  nucOXPHOS Z: −2.25
[4]; [11]
  mito-OXPHOS Z: −5.43

## COc1ccc2c(c1)c(CC(=O)O)c(C)n2C(=O)c1ccc(Cl)cc1 [Indomethacin, reference compound]
[3]; [11]
  nucOXPHOS Z: 1.32
[4]; [11]
  mito-OXPHOS Z: 2.40

## CC[N+](CC)(CC)CCOc1cccc(OCC[N+](CC)(CC)CC)c1OCC[N+](CC)(CC)CC [gallamine]
[6]; [16]
  ΔΨm: −0.882
[1]; [16]
  ROS: 1.259
[2]; [17]
  GE-HTS: 0.057
[3]; [16]
  nucOX: −0.292
[4]; [16]
  mitoOX: 0.843
[5]
  cyt c: 0.036
[5]; [16]
  cyt c: −0.492
[8]; [16]
  MTT: −1.683

## CO[C@H]1C=C[C@@]23c4cc5c(cc4CN(C[C@@H]2O)[C@H]3C1)OCO5 [Crinamine, reference compound]
[3]; [11]
  nucOXPHOS Z: 2.27
[4]; [11]
  mito-OXPHOS Z: −2.89

## C[C@]12CCC(=O)C[C@@H]1CC[C@@H]1[C@@H]2CC[C@]2(C)C(=O)CC[C@@H]12 [5alpha-androstan-3,17-dione]
[6]
  ΔΨm: 0.107
[1]
  ROS: 0.649
[3]
  nucOX: −0.426
[4]
  mitoOX: −0.509
[5]
  cyt c: 0.048
[7]
  Viability: −0.579
[8]
  MTT: −0.601

## CCN(CC)CCCC(C)Nc1c2ccc(Cl)cc2nc2ccc(OC)cc12 (stereo not shown) [Quinacrine, reference compound]
[3]; [11]
  nucOXPHOS Z: −2.65
[4]; [11]
  mito-OXPHOS Z: −2.81

## CCCCCCCCCCCCCCCC[N+](C)(C)C.[Br-] [cetrimonium bromide, reference compound]
[3]; [11]
  nucOXPHOS Z: −2.70
[4]; [11]
  mito-OXPHOS Z: 1.66

## O=C1C(Cl)=C(Cl)C(=O)C(Cl)=C1Cl [Chloranil, reference compound]
[3]; [11]
  nucOXPHOS Z: −2.45
[4]; [11]
  mito-OXPHOS Z: 2.50

## COc1cc([C@@H]2c3cc4c(cc3[C@H](O)[C@H]3COC(=O)[C@H]23)OCO4)cc(OC)c1OC [podofilox, reference compound]
[1]; [9]
  ROS Zscore: −1.436
[1]
  ROS levels: suppressing ROS levels
  dose at which ROS levels decreased: 2 µM
[2]; [9]
  GEHTS_Zscore: 3.408
[2]
  OXPHOS expression: boost OXPHOS expression
  dose at which OXPHOS expression increased: 2 µM
[3]; [11]
  nucOXPHOS Z: 2.53
[4]; [11]
  mito-OXPHOS Z: 1.28

## CON [methoxyamine]
[6]; [16]
  ΔΨm: −0.754
[1]; [16]
  ROS: 0.751
[2]; [17]
  GE-HTS: −1.274
[3]; [16]
  nucOX: −1.049
[4]; [16]
  mitoOX: −1.494
[5]; [16]
  cyt c: 0.749
[8]; [16]
  MTT: −1.833
